# Calls of active or inactive are those of the source.
# Tests used:
# [1] = target: Potassium voltage-gated channel subfamily KQT member 2 (Rattus norvegicus, UniProt O88943, W236L); experiment: KCNQ2 channel potentiators, dose response, mechanism study for KCNQ2 potentiator project, cell-based, automated electrophysiology (AID 2603); type: functional
# [2] = Luminescence Cell-Based Dose Retest to Confirm Inhibitors of Cancer Stem Cells. [Related pubchem assays (depositor defined):AID2717, AID2721]; type: functional; conditions: Homo sapiens
# [3] = Intein inhibitors as potential Tuberculosis drugs, a cytotoxicity screen. [Related pubchem assays (depositor defined):AID2221, AID2223, AID434968, AID435010, AID449749, AID449750, AID489010]; type: functional
# [4] = target: T1, Replicative DNA helicase DnaB (Mycobacterium tuberculosis, UniProt P9WMR3); experiment: DnaB intein splicing inhibitors, dose response, biochemical, cell-free fluorescence (AID 449749); type: functional
# T1 sequence (P9WMR3 whole entry): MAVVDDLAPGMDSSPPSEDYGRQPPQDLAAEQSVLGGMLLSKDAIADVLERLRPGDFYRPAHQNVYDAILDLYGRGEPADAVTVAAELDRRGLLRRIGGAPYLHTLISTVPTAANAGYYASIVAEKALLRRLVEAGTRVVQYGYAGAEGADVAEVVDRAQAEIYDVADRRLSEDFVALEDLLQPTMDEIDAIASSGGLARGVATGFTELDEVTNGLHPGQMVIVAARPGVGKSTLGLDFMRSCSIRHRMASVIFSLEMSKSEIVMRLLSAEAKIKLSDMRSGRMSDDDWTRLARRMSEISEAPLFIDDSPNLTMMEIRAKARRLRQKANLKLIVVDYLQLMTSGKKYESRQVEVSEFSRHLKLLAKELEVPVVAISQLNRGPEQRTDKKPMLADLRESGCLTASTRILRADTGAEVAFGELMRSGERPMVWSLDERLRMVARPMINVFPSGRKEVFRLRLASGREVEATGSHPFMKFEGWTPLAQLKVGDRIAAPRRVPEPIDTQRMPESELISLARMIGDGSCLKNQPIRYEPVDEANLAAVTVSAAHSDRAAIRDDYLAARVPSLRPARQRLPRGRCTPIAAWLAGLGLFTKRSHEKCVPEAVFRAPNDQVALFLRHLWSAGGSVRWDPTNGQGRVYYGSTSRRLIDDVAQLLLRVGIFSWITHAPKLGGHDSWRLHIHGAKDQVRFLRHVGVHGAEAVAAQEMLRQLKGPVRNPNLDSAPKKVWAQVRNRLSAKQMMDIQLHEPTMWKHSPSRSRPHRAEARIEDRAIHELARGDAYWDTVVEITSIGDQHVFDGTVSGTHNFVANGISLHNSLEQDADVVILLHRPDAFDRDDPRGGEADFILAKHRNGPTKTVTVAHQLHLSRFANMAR
# [5] = test system: Vero; experiment: Vero cell cytotoxicity, cytotoxicity control for flavivirus capping enzyme inhibitors (AID 588742); type: functional; conditions: Chlorocebus sabaeus
# [6] = target: T2, Protein RecA (Mycobacterium tuberculosis, UniProt P9WHJ3); experiment: Fluorescence Cell-Free Homogeneous Dose Retest to Identify Inhibitors of RecA-Intein Splicing Activity. [Related pubchem assays (depositor defined):AID2097, AID2223, AID489010, AID492950]; type: functional
# T2 sequence (P9WHJ3 whole entry): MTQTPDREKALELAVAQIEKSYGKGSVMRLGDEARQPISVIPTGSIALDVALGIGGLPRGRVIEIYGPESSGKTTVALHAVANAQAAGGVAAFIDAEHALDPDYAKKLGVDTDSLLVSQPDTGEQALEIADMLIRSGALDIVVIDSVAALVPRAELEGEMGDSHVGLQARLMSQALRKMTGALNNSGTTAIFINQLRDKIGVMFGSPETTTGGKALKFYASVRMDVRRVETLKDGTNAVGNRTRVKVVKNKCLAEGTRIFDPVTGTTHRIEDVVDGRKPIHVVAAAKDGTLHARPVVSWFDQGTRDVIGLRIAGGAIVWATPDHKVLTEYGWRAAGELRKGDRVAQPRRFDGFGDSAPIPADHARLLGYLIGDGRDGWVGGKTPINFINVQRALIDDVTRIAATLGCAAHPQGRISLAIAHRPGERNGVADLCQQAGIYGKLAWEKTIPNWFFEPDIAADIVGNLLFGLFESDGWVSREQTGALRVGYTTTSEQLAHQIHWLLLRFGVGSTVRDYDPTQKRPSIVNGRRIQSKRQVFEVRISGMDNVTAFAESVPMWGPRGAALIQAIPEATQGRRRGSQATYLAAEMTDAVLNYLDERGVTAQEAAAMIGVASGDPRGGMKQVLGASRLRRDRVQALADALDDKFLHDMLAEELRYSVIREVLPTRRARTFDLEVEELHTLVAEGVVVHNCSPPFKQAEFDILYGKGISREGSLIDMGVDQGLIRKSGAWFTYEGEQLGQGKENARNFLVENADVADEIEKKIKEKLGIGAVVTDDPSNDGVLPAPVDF
# [7] = target: Genome polyprotein (dengue virus type 2, UniProt P29990); experiment: Dengue-2 NS5 methyltransferase inhibitors, primary screen, biochemical, confirmation dose response (AID 588689); type: functional
# [8] = Shn3 3'UTR reporter inhibitors, dose response, cell-based, Clone20 osteoblasts, firefly luciferase, cherry-picked (AID 624132); type: functional;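 also: firefly luciferase luminescence from reporter carrying the Shn3 3'UTR in osteoblasts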
# [9] = control 3'UTR Renilla luciferase suppression, dose response, counter-screen for Shn3 inhibitor project, cell-based, Clone20-Shn3RL, cherry-picked (AID 624133); type: functional
# [10] = target: Hepatocyte nuclear factor 4-alpha (Homo sapiens, UniProt P41235); type: functional, cell-based;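 also: biochemical luminescence-based dose-response counterscreen measuring inhibition of HNF4 dimerization, run alongside a screen for blockers of ABHD5–perilipin-5 interaction; split luciferase complementation of HNF4 fusion proteins in cell lysate measuring dimerization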
# [11] = target: T3, NADPH oxidase 1 (Homo sapiens, UniProt Q9Y5S8); experiment: Luminescence-based cell-based dose response assay to identify inhibitors of NADPH oxidase 1 (NOX1).; type: functional
# T3 sequence (Q9Y5S8 whole entry): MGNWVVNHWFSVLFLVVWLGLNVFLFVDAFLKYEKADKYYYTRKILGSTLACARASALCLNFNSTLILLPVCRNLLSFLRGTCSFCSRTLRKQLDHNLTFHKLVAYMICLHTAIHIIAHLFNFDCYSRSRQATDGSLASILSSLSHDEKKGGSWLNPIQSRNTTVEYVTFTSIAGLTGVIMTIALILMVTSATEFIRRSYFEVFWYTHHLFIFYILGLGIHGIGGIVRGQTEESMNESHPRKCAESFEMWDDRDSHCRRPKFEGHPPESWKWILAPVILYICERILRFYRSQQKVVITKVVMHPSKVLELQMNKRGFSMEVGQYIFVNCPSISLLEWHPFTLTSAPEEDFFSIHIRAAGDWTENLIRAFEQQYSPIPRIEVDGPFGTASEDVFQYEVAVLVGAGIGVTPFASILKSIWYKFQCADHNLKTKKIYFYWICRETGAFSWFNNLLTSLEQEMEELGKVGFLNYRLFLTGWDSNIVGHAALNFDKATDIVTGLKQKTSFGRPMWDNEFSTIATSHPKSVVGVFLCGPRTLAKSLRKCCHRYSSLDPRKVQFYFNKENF
# [12] = M. tuberculosis H37Rv growth inhibitors, H37Rv strain (AID 1626); type: functional
# [13] = target: T4, Mannose-6-phosphate isomerase (Homo sapiens, UniProt P34949); experiment: inhibitors of human PMI, primary screen, biochemical, fluorescence intensity, coupled assay (AID 1209)
# T4 sequence (P34949 whole entry): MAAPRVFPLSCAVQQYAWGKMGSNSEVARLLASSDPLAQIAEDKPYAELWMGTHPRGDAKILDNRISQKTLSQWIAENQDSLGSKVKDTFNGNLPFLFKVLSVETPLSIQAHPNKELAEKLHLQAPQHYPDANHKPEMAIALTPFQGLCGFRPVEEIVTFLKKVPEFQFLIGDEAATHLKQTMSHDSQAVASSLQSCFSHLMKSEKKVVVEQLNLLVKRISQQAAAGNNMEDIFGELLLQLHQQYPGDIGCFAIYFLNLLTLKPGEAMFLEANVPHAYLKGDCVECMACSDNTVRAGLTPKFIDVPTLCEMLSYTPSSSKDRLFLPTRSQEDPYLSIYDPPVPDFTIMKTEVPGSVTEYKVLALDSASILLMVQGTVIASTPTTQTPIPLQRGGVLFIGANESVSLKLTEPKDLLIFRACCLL
# [14] = target: Epstein-Barr nuclear antigen 1 (Epstein-Barr virus (strain B95-8) (HHV-4) (Human herpesvirus 4), UniProt P03211); experiment: EBNA-1 inhibitors, dose response, biochemical, fluorescence polarization, 1536-well (AID 2381); parameters: species or system human gammaherpesvirus 4;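 also: fluorescence polarization of a Cy5 DNA probe bound by EBNA-1 protein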
# [15] = target: T5, Calpain-2 catalytic subunit (Sus scrofa, UniProt P43367); experiment: pig calpain II inhibitor potency, dose response, biochemical, fluorogenic peptide substrate (AID 1420); type: functional
# T5 sequence (P43367 whole entry): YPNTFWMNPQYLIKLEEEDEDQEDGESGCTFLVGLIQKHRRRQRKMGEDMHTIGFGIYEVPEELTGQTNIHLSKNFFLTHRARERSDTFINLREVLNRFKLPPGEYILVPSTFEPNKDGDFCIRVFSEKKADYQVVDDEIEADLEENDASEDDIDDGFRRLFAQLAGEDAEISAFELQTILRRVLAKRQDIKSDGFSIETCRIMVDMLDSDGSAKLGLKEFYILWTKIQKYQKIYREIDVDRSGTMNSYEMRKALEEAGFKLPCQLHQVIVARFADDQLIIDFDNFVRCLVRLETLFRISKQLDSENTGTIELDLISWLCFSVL
# [16] = target: Lytic switch protein BZLF1 (Epstein-Barr virus (strain B95-8) (HHV-4) (Human herpesvirus 4), UniProt P03206); experiment: EBV ZTA inhibitors, dose response, counter-screen for EBNA-1 inhibitor project, biochemical, fluorescence polarization, Epstein-Barr virus, 1536-well (AID 2377); parameters: species or system human gammaherpesvirus 4;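 also: fluorescence polarization of Cy5-labelled ZRE DNA probe bound by purified Zta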
# [17] = target: T6, Tyrosine-protein phosphatase non-receptor type 7 (Homo sapiens, UniProt P35236); type: functional
# T6 sequence (P35236 whole entry): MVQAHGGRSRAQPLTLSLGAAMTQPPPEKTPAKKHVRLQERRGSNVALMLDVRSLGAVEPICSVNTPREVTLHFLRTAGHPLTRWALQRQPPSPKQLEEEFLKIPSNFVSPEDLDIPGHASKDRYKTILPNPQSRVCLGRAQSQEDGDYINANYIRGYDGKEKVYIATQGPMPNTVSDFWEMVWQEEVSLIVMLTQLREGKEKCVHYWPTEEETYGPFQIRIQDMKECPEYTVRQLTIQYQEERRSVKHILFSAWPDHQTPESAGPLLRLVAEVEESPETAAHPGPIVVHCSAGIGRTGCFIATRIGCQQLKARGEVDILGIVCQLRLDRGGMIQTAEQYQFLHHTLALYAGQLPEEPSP
# [18] = target: Glyceraldehyde-3-phosphate dehydrogenase (Homo sapiens, UniProt P04406)
# [19] = target: T7, Induced myeloid leukemia cell differentiation protein Mcl-1 (Homo sapiens, UniProt Q07820); experiment: MCL1-BIM BH3 interaction inhibitors, dose response, biochemical, fluorescence polarization, BIM-BH3 peptide, 1536-well (AID 2217)
# [20] = target: Protein-tyrosine kinase 2-beta (Homo sapiens, UniProt Q14289);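 also: potency of inhibitors of PYK2 kinase phosphorylation of poly-GT substrate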
# [21] = target: T8, Dual specificity protein phosphatase 6 (Rattus norvegicus, UniProt Q64346)
# T8 sequence (Q64346 whole entry): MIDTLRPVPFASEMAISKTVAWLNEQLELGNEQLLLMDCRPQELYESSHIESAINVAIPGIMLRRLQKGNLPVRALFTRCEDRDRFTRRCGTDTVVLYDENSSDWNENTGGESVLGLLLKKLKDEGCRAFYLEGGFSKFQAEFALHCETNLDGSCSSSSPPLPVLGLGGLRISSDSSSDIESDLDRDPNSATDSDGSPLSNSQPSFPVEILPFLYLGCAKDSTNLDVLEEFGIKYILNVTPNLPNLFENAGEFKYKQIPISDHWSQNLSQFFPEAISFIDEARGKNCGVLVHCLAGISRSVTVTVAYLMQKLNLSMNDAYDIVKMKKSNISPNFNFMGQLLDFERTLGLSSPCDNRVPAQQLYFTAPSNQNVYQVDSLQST
# [22] = target: Bcl-2-like protein 1 (Homo sapiens, UniProt Q07817); experiment: BCL-XL inhibitors, dose response, selectivity assay for MCL1 inhibitor project, biochemical, fluorescence polarization, 1536-well (AID 2218)
# [23] = target: T7, Induced myeloid leukemia cell differentiation protein Mcl-1; type: functional
# [24] = target: T8, Dual specificity protein phosphatase 6; type: functional
# T7 sequence (Q07820 whole entry): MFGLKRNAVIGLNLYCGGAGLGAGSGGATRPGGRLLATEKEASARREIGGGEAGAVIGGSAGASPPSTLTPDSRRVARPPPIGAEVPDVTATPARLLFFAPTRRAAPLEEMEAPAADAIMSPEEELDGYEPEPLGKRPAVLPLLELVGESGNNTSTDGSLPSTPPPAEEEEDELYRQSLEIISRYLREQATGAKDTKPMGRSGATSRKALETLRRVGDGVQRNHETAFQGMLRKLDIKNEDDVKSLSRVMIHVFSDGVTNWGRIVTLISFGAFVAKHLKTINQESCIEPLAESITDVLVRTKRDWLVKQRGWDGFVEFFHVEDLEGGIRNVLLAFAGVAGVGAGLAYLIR
# Sequence of Genome polyprotein (P29990 2492-3391 limits assumed): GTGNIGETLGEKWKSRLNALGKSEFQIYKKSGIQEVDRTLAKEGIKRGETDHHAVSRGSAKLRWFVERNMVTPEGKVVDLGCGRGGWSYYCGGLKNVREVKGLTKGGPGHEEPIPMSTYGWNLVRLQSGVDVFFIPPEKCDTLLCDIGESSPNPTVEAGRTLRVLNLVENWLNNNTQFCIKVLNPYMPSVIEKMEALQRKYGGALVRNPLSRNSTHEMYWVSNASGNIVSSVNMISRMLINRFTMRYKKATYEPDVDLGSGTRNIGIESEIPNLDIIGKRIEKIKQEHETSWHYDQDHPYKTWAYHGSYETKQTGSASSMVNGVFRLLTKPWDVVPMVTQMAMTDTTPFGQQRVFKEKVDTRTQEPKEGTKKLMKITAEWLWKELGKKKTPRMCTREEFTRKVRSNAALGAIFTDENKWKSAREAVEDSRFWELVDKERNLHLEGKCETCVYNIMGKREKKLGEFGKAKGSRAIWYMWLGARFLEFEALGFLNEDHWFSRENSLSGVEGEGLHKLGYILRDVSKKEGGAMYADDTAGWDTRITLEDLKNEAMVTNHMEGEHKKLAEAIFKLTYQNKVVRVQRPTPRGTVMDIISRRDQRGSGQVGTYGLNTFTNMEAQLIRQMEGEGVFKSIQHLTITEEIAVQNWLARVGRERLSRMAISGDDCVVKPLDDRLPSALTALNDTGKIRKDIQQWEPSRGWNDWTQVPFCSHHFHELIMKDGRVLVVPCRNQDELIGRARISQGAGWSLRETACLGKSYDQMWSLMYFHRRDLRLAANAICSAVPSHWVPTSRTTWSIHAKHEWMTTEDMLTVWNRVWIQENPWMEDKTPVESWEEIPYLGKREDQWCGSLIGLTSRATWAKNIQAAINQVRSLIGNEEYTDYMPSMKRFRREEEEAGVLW
# Sequence of Glyceraldehyde-3-phosphate dehydrogenase (P04406 whole entry): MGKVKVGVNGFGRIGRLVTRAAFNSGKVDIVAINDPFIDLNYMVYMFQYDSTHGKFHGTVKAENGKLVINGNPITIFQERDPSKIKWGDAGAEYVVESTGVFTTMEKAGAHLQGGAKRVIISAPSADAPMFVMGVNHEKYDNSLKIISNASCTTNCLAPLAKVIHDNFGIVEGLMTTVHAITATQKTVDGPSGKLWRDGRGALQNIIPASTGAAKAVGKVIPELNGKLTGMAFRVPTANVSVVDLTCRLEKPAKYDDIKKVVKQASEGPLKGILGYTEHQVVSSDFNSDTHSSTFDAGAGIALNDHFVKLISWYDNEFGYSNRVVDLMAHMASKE
# Sequence of Hepatocyte nuclear factor 4-alpha (P41235 whole entry, the tested form may be a part): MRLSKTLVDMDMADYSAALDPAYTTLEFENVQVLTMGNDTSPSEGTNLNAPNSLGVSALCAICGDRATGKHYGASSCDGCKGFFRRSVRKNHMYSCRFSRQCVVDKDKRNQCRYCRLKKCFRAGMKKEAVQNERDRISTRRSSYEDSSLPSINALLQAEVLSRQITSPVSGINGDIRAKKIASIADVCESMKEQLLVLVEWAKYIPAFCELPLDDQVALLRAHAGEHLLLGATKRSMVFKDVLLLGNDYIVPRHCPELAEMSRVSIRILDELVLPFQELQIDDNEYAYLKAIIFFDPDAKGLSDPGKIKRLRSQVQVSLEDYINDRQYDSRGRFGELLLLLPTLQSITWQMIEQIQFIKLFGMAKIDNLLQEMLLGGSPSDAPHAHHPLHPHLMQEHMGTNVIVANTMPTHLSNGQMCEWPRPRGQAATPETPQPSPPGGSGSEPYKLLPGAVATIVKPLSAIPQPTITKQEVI
# Sequence of Potassium voltage-gated channel subfamily KQT member 2 (O88943 whole entry W236L): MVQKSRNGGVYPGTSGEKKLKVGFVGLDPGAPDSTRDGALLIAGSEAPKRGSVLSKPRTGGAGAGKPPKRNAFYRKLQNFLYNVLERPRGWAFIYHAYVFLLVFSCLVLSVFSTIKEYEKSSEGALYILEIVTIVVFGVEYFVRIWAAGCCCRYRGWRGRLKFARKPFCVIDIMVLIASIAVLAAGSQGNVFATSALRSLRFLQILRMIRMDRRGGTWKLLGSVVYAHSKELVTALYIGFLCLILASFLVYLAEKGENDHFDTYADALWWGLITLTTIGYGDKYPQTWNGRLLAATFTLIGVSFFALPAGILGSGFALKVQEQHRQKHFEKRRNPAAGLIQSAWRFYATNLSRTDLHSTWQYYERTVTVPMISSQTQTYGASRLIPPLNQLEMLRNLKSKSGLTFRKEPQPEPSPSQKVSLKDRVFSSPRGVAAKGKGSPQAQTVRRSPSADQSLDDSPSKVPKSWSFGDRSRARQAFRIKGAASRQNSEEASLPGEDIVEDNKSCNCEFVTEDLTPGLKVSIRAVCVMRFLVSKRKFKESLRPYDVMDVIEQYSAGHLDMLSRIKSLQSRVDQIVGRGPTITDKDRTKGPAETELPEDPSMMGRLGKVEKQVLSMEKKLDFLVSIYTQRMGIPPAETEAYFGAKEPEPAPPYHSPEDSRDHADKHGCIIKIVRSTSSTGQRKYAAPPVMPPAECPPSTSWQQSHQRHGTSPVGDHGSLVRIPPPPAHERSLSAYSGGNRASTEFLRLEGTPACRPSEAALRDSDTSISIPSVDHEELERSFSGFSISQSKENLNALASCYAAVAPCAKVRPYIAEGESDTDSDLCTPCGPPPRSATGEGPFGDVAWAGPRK
# Sequence of Epstein-Barr nuclear antigen 1 (P03211 whole entry): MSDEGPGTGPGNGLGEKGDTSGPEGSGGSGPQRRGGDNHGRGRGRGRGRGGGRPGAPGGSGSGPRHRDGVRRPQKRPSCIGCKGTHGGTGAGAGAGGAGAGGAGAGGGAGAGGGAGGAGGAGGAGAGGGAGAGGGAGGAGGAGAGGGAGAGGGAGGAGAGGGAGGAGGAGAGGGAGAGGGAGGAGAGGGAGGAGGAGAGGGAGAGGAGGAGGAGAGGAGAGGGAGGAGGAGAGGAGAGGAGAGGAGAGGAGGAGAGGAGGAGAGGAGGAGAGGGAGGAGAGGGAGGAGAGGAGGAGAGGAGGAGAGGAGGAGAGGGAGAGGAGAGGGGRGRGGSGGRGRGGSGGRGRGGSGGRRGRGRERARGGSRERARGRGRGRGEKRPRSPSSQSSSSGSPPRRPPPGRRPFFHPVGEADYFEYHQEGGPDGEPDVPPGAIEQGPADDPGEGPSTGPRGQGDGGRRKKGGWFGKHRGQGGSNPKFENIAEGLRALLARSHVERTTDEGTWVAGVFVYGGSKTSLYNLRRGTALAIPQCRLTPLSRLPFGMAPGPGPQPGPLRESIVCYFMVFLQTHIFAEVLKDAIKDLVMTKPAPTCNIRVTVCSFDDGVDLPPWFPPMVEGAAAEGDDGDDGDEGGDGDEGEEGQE
# Sequence of Bcl-2-like protein 1 (Q07817 whole entry): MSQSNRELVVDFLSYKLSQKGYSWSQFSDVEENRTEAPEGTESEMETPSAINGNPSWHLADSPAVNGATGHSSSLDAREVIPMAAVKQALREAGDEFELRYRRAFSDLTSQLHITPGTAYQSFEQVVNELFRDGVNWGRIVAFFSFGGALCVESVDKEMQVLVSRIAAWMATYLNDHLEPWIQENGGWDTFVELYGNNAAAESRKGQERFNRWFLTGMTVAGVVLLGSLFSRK
# Sequence of Protein-tyrosine kinase 2-beta (Q14289 whole entry): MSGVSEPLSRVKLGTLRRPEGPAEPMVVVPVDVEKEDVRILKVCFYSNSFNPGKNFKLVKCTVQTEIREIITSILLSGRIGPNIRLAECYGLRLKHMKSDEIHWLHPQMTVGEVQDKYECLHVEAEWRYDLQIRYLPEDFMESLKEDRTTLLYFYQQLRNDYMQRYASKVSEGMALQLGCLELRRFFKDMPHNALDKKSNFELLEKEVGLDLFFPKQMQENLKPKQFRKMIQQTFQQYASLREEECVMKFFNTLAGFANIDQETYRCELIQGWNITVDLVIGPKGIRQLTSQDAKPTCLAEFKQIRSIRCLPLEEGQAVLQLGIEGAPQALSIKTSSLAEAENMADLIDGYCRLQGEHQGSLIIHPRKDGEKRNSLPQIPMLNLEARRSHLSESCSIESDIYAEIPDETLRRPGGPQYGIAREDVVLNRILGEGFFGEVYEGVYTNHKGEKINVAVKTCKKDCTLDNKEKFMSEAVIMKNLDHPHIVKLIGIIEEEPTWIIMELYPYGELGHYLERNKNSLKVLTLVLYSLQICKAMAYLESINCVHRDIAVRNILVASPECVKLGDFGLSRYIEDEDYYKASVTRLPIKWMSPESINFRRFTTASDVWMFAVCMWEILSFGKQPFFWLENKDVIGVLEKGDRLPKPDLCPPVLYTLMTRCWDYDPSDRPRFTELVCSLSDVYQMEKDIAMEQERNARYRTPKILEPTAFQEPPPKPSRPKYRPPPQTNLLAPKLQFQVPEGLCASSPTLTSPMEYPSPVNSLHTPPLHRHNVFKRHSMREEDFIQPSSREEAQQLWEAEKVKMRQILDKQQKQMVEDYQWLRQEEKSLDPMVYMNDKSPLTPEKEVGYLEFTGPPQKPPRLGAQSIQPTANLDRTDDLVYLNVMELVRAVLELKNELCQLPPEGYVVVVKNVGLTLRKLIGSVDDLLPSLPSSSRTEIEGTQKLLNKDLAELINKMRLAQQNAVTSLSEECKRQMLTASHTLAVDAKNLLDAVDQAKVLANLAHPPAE
compound,measurement,setting,value
CSc1nnc(NC(=O)c2nc(S(=O)(=O)Cc3ccccc3F)ncc2Cl)s1,EC50,[1],4.19 µM (active)
same,AC50,[2],2.14 µM (active)
same,CC50,[3],35.4 µM (active)
same,AC50,[4],5 µM (active)
same,CC50,[5],27.8 µM (active)
same,EC50,[6],3.5 µM (active)
same,IC50,[7],52.3 µM (active)
same,AC50,[8],1.55 µM (active)
same,AC50,[9],13 µM (active)
same,IC50,[10],3.98 µM (active)
CCOc1ccc(NC(=O)Nc2ccc(N(C)C(C)=O)cc2)cc1,IC50,[11],> 20 µM (not active)
Nc1ccc(N=Nc2ccccc2)cc1,IC50,[12],> 100 µM (active)
CCOC(=O)NC1(Nc2cccc(Cl)c2)Oc2ccccc2O1,IC50,[13],> 50 µM (not active)
CCOC(=O)c1ccc(NC(=O)C2CC(=O)Nc3nc4ccccc4n32)cc1 (centres undefined),IC50,[14],> 5.47 µM (active)
same,IC50,[15],> 50 µM (not active)
same,IC50,[16],> 111 µM (not active)
Cc1cc(NC(=O)Cc2cccs2)no1,IC50,[17],3.93 µM (active)
same,IC50,[18],92.2 µM (active)
same,IC50,[19],4.05 µM (active)
same,IC50,[20],6.64 µM (active)
same,IC50,[21],15.3 µM (active)
same,IC50,[22],53.2 µM (not active)
same,IC50,[23],1.58 µM (active)
same,IC50,[24],13.1 µM (active)
